The values that follow are results of earlier work, collected in patent US20170049816A1, “Methods of Benchmarking Wellness with a Stable Reactive Oxygen Species Solution” (Reoxcyn Discoveries Group, Inc., priority 2013, published 2017).

The conditions of this series: pH-neutral aqueous solution (pH around 7.0) at room temperature.

For `O=[O+][O-]` [dissolved ozone (O3), ozone], the half-life entry is “about 20 min”.
